This note sets out measurements from US12496285B2, “Compositions and methods using at least one glycine or derivative thereof, at least one N-acetylcysteine or derivative thereof, and at least one nicotinamide riboside or NAD+ precursor” (SOCIETE DES PRODUITS NESTLE S.A., priority 2018, dated 2025).

For the assay, the system named is mitochondrial respiration. Description: High-resolution respirometry of isolated muscle mitochondria from adult zebrafish after menadione-induced acute oxidative stress. The format is in vivo. Particulars: 3 uM menadione 2 h then 2 h treatment, low doses: NAC 100 uM + glycine 100 uM (GlyNAC) or NR 50 uM, single treatments. The method, then: FIG. 1. Effect of the combination of NAC, glycine and NR on the mitochondrial respiration. High-resolution respirometry of isolated mitochondria from muscle of adult zebrafish (N=5-6/condition). Acute oxidative stress was induced with a 2 h-treatment with menadione (Men). Rescue of the respiration was assessed with a treatment of 2 h with low doses of […] 100 uM, glycine 100 uM) and low dose of NR (50 uM). Data of respiration measurements are shown in 1A. Theoretical additive effect (Δ[…]) has been calculated as the sum of the mean of […] and NR and have been compared to the synergistic effect (Δ[…]). […] After BCA quantification of protein concentration, 150 ug of crude extract were used for high-resolution respirometry quantification. […] Respiration of isolated mitochondria was determined using substrate-uncoupler-inhibitor titration (SUIT) protocols (Pesta and […], 2012) with modifications. […] CI respiration was calculated as the difference between total respiration (CI+CII) and the addition of CI inhibitor rotenone (0.5 uM); CII respiration was calculated as the difference between inhibited CI respiration and the addition of CII inhibitor malonic acid (5 mM). Total respiration (CI+CII, Tot resp) was assessed as the difference of the respiration in presence of all substrates and the total inhibition of CI and CII. All numerical data are expressed as mean±SEM and reported as histograms. […]

For the compound `NC(=O)c1ccc[n+]([C@@H]2O[C@H](CO)[C@@H](O)[C@H]2O)c1` [NR, nicotinamide riboside], the “effect on mitochondrial respiration when used alone” value is listed as “do not show any significant effect when used alone”.
